# Legend:
# [1] = test system: orthotopic Lewis lung (3LL) NSCLC tumors; settings: seven consecutive days of treatment; van Maldegem et al. 2021; cited from earlier work
# [2] = test system: Lewis Lung (3LL) carcinoma model; settings: van Maldegem et al. 2021, cited from earlier work
# [3] = test system: Lewis Lung (3LL) carcinoma model; assay: Imaging mass cytometry of Lewis Lung (3LL) carcinoma lungs after 7 days MRTX1257 or Vehicle; spatial community analysis; type: in vivo, C57BL/6 mice
# Procedure: Two datasets of IMC data generated from an in vivo experiment in which the Lewis Lung (3LL) carcinoma model was treated with the KRAS-G12C inhibitor MRTX1257 for 7 days prior to harvesting of the lungs were published previously in van Maldegem et al. (2021), Nat. Commun. 12:5906 (dataset 1) and Mugarza et al. (2022), Sci. Adv. 8: eabm8780 (dataset 2).
# Following 3 weeks, mice were treated with either 50 mg/kg MRTX1257 or Vehicle for 7 consecutive days. Mice were sacrificed on day 8 and lungs were harvested and frozen. Tumors of 3 mice from each treatment group for dataset 1 and 4 mice from each treatment group for dataset 2 were processed for imaging mass cytometry. Tissue slices were stained with a cocktail of antibodies conjugated to heavy metal isotopes and images were obtained using a Hyperion Imaging Mass Cytometer (Standard BioTools). Different antibody panels were used for the generation of datasets 1 and 2 (FIGS. 1A and 1B). In total, 6 images were acquired from both Vehicle and MRTX1257 groups for dataset 1, and the Vehicle group for dataset 2, and 5 images were acquired from the MRTX1257 group for dataset 2.
# For further details on the in vivo study and IMC, including tissue processing, antibody staining, imaging acquisition and cell typing, reference is generally made to the Materials and Methods and Supplementary Materials provided by van Maldegem et al. (2021) and Mugarza et al. (2022), which are herewith incorporated by reference.
# As described in van Maldegem et al. (2021), cellular neighbors were identified during segmentation using the CellProfiler module ‘Measure Object Neighbours’, following steps to identify individual cells. Neighbors were identified if a cell's boundary was within 15 μm (pixels) of the cell boundary of interest. Neighbor information was obtained for every cell object in each tissue.
# Each ‘neighborhood’ was identified as a single cell and its local neighbors; defined by 15 μm object relationship output data from segmentation.
# Expression values for each marker were normalized to the mean intensity of Xenon134. Following this, the data for each image across both treatment groups was concatenated, creating a size of 282,837 cells for dataset 1 and 626,070 cells for dataset 2. Each channel was then scaled to the 99th percentile. […] These clusters formed the basis to identify cell types present in the tissue, including tumor, lymphocytes, myeloid cells, fibroblasts, and endothelium. More details are available in van Maldegem et al., 2021 for dataset 1 and Mugarza et al., 2022 for dataset 2.
# As described in van Maldegem et al., 2021, the neighbourhood method developed by Bodenmiller (https://github.com/BodenmillerGroup/neighbourhood; Schapiro et al., 2017, histoCAT: analysis of cell phenotypes and interactions in multiplex image cytometry data. Nat Methods 14, 873-876) was used to identify the enrichment of cell types within the 15-pixel neighborhood of each cell compared to random permutations of events, with a modification of only calculating enrichment in the CD8^+ T cell neighborhood, separated by community and using 1000 rounds of permutation. This was carried out for the community names T cell/normal adjacent community (T/NA), T cell/Type 1 macrophage community (T/M1), T cell/Dendritic cell community (T/DC), T cell/Type 2 macrophage community 1 (T/M2_1) and T cell/Type 2 macrophage community 2 (T/M2_2) communities for the MRTX1257 treatment setting.
# Neighborhood enrichment analysis was also used for exploring cell pair relationships in the presence or absence of Tregs within the T/DC and T/M2_2 communities following MRTX treatment. Enrichment scores were only deemed statistically significant if the p-value when comparing real neighbors to randomized neighbors was ≤0.01.
# KRAS-G12C mutant NSCLC = settings: clinical trials; cited from earlier work
# CCR4 = biological target: T1, CCR4 (Homo sapiens, UniProt P51679); settings: Kurose et al. 2015; cited from earlier work
# T1 construct: host or cells: Tregs, conventional CD4+ and CD8+ T cells (in vivo, cited study)
# T1 sequence (P51679 1-360): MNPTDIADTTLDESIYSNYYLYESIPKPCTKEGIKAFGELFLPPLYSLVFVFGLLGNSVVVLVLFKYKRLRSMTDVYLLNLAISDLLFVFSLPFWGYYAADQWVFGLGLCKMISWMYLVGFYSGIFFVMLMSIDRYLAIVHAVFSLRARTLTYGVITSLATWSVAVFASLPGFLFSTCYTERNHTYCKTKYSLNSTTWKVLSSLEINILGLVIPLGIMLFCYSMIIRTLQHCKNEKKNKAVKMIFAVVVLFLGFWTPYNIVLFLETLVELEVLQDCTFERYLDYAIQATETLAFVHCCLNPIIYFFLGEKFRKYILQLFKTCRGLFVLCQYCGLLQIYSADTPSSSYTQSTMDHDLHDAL
# advanced melanoma = settings: Hodi et al. 2010; cited from earlier work
compound,measurement,setting,value
C=CC(=O)N1CCN(c2nc(OC[C@@H]3CCCN3C)nc3c2CCN(c2cccc4cccc(C)c24)C3)C[C@@H]1CC#N [MRTX1257],tumor regression and growth,[1],tumors did not regress although tumor growth was inhibited
same,immune phenotype of the tumor microenvironment,[2]; 50 mg/kg MRTX1257 for 7 days vs Vehicle,remodelled into a more inflammatory immune infiltrated TME
same,type 2 macrophage number and activation markers,[2]; previously described,increased in cell number and upregulated activation markers such as PD-L1 and MHC-II
same,frequency of c-casp3+ tumor cells in the CD8+ T cell close neighborhood,"[3]; T/DC community, 'No Tregs' neighborhoods, FIG. 25",increased
same,Ki67 expression on CD4+ and CD8+ T cells,"[3]; T/DC community, dataset 2, FIG. 19A",significant increase
same,occurrences of a c-casp3+ tumor cell in the 15-pixel neighborhood of a CD8+ T cell,"[3]; T/DC community, dataset 2, FIG. 19B",increased
same,images with CD4+ T cells and dendritic cells significantly enriched in the neighborhood of a CD8+ T cell,"[3]; T/DC community, vs random permutation, FIG. 21A",at least five out of the six images
same,images with Treg cells significantly enriched in the neighborhood of CD8+ T cells,"[3]; T/DC community, FIG. 21A",3 out of the 6
same,mean expression of PD-1 on CD8+ T cells,"[3]; T/DC, T/M2_1 and T/M2_2 communities, most pronounced in T/DC, FIGS. 16A-16B",an increase occurred
same,PD-L1 expression on dendritic cells (accompanied by high CD86),"[3]; T/DC, T/M2_1 and T/M2_2 communities, FIGS. 13A-13C",increased PD-L1 expression
same,"interactions between tumor cells and neutrophils (communities 5, 13, 14, 15)","[3]; dataset 1, MRTX1257 vs Vehicle, FIG. 5",lost or dispersed
same,mean expression of CXCL9 on dendritic cells and macrophages,"[3]; dataset 2, highest in T/DC community, FIG. 14",increased
same,mean expression of PD-1 on regulatory T cells,"[3]; mainly in the T/DC community, FIG. 16D",higher PD-1 expression
same,count of regulatory T cells,"[3]; most notably in T/DC and T/M2_2 communities, FIG. 22",increased in size
same,spatial distribution and neighborhood environment of CD8+ T cells,"[3]; top 5 CD8+ T cell rich communities, MRTX1257 vs Vehicle, FIG. 11",shift in spatial distribution and neighborhood environment
same,percentage of PD-1+ CD8+ T cells that are positive for LAG-3,"[3]; tumor-associated communities following MRTX treatment, FIG. 17B",~30%
C=CC(=O)N1CCN(c2nc(=O)n(-c3c(C)ccnc3C(C)C)c3nc(-c4c(O)cccc4F)c(F)cc23)[C@@H](C)C1 [sotorasib],patients achieving temporary disease control,KRAS-G12C mutant NSCLC,80%
"mogamulizumab: humanized, afucosylated monoclonal antibody targeting CC chemokine receptor 4 (CCR4)",CD8+ T cell numbers,CCR4,modest reductions
same,Treg depletion,CCR4,achieved
same,conventional CD4+ T cells,CCR4,significant depletion
"Ipilimumab: human anti-CTLA-4 antibody with IgG1 constant region, SEQ ID NO: 150 and 151",overall survival,advanced melanoma,improvement in overall survival
